Assay results taken from ChEMBL document CHEMBL1201862, “PubChem BioAssay data set” (2004).
Calls of active or inactive are those of the source.

Columns and labels:
[1] = molecular target: Peroxisome proliferator-activated receptor gamma/Nuclear receptor coactivator 3 (Homo sapiens, UniProt P37231); experiment: TR-FRET dose response biochemical High Throughput Screening assay for agonists of the steroid receptor coactivator 3 (SRC-3) recruitment by the peroxisome proliferator-activated receptor gamma (PPAR gamma): non-selective agonists. [Related pubchem assays: 1301 (Confirmation screen.), 1048 (Primary screen.)]; assay type: functional
[2] = molecular target: Peroxisome proliferator-activated receptor gamma/Nuclear receptor coactivator 1 (Homo sapiens, UniProt P37231); experiment: TR-FRET dose response biochemical High Throughput Screening assay for agonists of the steroid receptor coactivator 1 (SRC-1) recruitment by the peroxisome proliferator-activated receptor gamma (PPAR gamma): non-selective agonists. [Related pubchem assays (depositor defined):AID1300, AID1808, AID504735, AID631]; assay type: protein assay
[3] = molecular target: Peroxisome proliferator-activated receptor gamma/Nuclear receptor coactivator 2 (Homo sapiens, UniProt P37231); experiment: TR-FRET dose response biochemical High Throughput Screening assay for agonists of the steroid receptor coactivator 2 (SRC-2) recruitment by the peroxisome proliferator-activated receptor gamma (PPAR gamma): non-selective agonists. [Related pubchem assays: 1297, 1032 ]; assay type: functional
[4] = NIH-3T3 fibroblast cytotoxicity, dose response, cytotoxicity control, cell-based, fluorescence, Alamar Blue, secondary assay (AID 2327); assay type: functional;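 note: NIH-3T3 mouse fibroblasts cultured with fluconazole at 8 µg/mL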
[5] = fluconazole-exposed Candida albicans growth modulators – fluorescence, retest, confirmation (AID 2467); assay type: functional, cell-based
[6] = molecular target: T1, Type-1 angiotensin II receptor (Homo sapiens, UniProt P30556); experiment: agonist activity at AGTR1 – cell-based, uHTS hits, selectivity assay for APJ receptor agonist project, dose response (AID 488865); assay type: functional;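 note: beta-arrestin recruitment to AT1 measured by enzyme fragment complementation luminescence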
T1 sequence (P30556 whole entry): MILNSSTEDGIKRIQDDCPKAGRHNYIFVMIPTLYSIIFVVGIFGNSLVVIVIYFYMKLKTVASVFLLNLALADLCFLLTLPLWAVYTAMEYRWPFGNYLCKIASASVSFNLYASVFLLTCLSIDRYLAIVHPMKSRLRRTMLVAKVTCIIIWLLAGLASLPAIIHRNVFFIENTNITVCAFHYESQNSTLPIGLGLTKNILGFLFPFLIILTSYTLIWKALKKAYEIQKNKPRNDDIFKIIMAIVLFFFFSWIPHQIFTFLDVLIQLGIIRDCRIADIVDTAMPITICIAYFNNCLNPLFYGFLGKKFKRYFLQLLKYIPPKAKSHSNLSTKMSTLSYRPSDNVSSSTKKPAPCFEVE

[7] = molecular target: T2, Kappa-type opioid receptor (Homo sapiens, UniProt P41145); assay type: functional
[8] = molecular target: T3, Delta-type opioid receptor (Homo sapiens, UniProt P41143); experiment: HTS Image-Based Screen for Agonists of the DOR Receptor. [Related pubchem assays (depositor defined):AID1777, AID1786, AID2133]; assay type: functional
Mu-type opioid receptor = Mu-type opioid receptor (Homo sapiens, UniProt P35372); experiment: HTS Image-Based Screen for Agonists of the MOR Receptor. [Related pubchem assays (depositor defined):AID1777, AID1785, AID1786, AID2133]; assay type: functional;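 note: imaging of beta-arrestin GFP recruitment into spots after receptor activation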
[9] = molecular target: T3, Delta-type opioid receptor; experiment: HTS Image-Based Screen for Antagonists of the DOR Receptor. [Related pubchem assays (depositor defined):AID1777, AID1785, AID1786, AID2133]; assay type: functional
[10] = molecular target: T2, Kappa-type opioid receptor; assay type: functional; remark: listed apart in the source
Streptococcus = experiment: GAS UMAA2166 growth inhibition – luminescence, BacTiterGlo, counter-screen for streptokinase expression inhibitor project, dose response (AID 1915); assay type: functional, organism-based;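 note: potency for reduction of bacterial viability or growth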
[11] = test system: Streptococcus sp. 'group A'; experiment: Streptococcus pyogenes SK(-)GAS viability under kanamycin – luminescence, BacTiterGlo, confirmation, counter-screen for streptokinase expression inhibitor project, dose response (AID 1900); assay type: functional, organism-based
Streptokinase A = molecular target: T4, Streptokinase A (Streptococcus pyogenes serotype M1, UniProt P10520); experiment: viability-normalized secreted streptokinase activity reduction – plasminogen activation absorbance, OD405, dose response (AID 1914); assay type: functional, Streptococcus pyogenes M1 GAS;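 note: secreted streptokinase activity via plasminogen activation per viability signal from cell pellet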
T4 sequence (P10520 whole entry): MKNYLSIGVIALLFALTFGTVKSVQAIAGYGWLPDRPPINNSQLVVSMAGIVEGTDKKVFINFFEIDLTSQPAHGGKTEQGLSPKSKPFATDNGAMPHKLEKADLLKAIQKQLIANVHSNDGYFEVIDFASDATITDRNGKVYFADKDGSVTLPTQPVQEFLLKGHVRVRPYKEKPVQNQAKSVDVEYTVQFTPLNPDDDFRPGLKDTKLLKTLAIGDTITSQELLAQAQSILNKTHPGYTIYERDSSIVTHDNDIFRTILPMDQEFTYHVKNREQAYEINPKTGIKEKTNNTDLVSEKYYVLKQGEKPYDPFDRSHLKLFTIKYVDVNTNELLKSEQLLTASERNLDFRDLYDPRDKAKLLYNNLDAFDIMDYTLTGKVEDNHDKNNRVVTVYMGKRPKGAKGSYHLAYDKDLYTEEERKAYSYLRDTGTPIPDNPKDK

Beta-galactosidase = Beta-galactosidase (Escherichia coli, UniProt Q8VNN2); assay type: functional
[12] = molecular target: T5, Glutathione-S-transferase (Schistosoma japonicum, UniProt Q26513); experiment: GST-antibody interaction or FRET quenching – biochemical, TR-FRET, artefact control for Vif-APOBEC3G degradation inhibitor project, dose response (AID 1117362); assay type: functional
T5 sequence (Q26513 whole entry): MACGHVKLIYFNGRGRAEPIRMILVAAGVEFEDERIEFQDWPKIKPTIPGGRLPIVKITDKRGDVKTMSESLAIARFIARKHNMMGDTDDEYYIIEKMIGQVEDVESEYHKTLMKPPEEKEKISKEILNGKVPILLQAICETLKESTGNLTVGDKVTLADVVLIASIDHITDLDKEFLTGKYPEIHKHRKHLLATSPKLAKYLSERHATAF

[13] = molecular target: T6, Phosphoethanolamine/phosphocholine phosphatase (Homo sapiens, UniProt Q8TCT1); experiment: SAR assay for compounds that inhibit PHOSPHO1. [Related pubchem assays (depositor defined):AID1545, AID1565, AID1574]
T6 sequence (Q8TCT1 whole entry): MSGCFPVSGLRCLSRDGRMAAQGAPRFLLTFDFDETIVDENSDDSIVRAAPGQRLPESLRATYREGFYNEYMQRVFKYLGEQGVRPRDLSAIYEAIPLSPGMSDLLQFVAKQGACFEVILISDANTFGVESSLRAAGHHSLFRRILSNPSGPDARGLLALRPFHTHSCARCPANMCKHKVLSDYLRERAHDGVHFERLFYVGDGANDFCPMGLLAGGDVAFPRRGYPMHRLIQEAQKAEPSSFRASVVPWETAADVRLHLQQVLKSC

[14] = molecular target: T7, Mannose-6-phosphate isomerase (Homo sapiens, UniProt P34949); experiment: phosphomannose isomerase inhibition – biochemical, fluorescence intensity, confirmation (AID 1535)
T7 sequence (P34949 whole entry): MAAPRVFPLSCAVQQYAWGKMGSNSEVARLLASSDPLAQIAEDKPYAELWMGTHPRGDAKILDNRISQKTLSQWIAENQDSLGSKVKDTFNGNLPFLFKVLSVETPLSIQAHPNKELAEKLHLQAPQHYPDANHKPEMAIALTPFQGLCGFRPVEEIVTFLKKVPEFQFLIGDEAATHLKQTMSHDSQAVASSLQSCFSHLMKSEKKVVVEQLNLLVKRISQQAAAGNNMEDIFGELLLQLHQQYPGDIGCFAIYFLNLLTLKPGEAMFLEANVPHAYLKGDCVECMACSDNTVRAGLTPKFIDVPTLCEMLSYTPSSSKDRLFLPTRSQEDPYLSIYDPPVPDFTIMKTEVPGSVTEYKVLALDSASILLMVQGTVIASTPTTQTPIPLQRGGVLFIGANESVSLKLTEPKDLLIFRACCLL

Phosphomannomutase 2 = molecular target: T8, Phosphomannomutase 2 (Homo sapiens, UniProt O15305); experiment: Counter screen SAR assay for PMM2 inhibitors via a fluorescence intensity assay. [Related pubchem assays (depositor defined):AID1545, AID1574]
T8 sequence (O15305 whole entry): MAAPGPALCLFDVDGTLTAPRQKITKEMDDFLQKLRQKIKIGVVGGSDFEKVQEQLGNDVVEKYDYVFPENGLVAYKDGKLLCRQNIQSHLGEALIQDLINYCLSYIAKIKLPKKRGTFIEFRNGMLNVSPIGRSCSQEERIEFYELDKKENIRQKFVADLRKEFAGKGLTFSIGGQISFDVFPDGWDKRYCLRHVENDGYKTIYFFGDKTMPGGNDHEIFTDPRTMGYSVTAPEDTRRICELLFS

[15] = molecular target: T9, Ubiquitin-conjugating enzyme E2 N (Homo sapiens, UniProt P61088); assay type: functional
T9 sequence (P61088 whole entry): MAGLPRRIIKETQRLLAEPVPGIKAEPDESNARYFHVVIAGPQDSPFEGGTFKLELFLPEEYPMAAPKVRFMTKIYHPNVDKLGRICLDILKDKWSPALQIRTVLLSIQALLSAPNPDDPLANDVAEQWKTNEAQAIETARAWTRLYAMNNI

Bcl-2-related protein A1 = molecular target: T10, Bcl-2-related protein A1 (Mus musculus, UniProt Q07440); assay type: functional;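 note: confirmatory dose–response counterscreen on Bfl-1, used to check hits from a UBC13 polyubiquitin inhibitor campaign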
T10 sequence (Q07440 whole entry): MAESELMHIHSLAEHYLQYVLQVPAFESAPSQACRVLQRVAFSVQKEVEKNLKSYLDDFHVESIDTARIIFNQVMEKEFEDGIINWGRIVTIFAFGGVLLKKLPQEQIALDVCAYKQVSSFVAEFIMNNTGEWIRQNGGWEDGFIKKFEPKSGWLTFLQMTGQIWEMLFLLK

[16] = molecular target: T9, Ubiquitin-conjugating enzyme E2 N; assay type: functional; remark: listed apart in the source
[17] = molecular target: T11, Short transient receptor potential channel 4 (Mus musculus, UniProt Q9QUQ5); experiment: calcium entry via TRPC4 opening agents – cell-based, HEK293 TRPC4/mu-opioid, Fluo-4 calcium, dose response (AID 434937); assay type: functional
T11 sequence (Q9QUQ5 whole entry): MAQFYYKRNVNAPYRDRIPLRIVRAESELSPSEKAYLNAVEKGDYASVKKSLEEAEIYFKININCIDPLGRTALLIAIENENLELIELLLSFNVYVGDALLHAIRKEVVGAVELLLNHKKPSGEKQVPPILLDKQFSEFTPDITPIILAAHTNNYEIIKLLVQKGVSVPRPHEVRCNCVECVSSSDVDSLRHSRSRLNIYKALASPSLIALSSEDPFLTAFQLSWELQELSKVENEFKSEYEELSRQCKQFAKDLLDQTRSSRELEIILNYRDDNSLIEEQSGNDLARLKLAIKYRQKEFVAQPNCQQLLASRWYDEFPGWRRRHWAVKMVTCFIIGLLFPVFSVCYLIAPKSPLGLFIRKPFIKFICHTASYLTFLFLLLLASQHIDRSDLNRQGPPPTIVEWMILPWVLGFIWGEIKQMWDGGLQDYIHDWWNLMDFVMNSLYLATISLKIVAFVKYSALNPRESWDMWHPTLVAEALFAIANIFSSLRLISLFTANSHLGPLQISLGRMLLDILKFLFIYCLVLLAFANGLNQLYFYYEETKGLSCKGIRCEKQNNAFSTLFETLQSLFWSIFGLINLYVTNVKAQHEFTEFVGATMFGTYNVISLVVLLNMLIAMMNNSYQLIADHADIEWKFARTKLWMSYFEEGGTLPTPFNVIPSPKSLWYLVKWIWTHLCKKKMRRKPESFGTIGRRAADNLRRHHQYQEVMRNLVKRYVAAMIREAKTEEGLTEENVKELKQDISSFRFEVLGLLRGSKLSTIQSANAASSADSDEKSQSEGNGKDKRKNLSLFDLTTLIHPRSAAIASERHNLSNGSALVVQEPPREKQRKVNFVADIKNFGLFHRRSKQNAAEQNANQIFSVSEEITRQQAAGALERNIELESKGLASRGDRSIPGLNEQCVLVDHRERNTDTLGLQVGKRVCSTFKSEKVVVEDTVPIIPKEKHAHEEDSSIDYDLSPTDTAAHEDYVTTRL

Peroxisome proliferator-activated receptor gamma/Nuclear receptor coactivator 2, sequence (P37231 whole entry): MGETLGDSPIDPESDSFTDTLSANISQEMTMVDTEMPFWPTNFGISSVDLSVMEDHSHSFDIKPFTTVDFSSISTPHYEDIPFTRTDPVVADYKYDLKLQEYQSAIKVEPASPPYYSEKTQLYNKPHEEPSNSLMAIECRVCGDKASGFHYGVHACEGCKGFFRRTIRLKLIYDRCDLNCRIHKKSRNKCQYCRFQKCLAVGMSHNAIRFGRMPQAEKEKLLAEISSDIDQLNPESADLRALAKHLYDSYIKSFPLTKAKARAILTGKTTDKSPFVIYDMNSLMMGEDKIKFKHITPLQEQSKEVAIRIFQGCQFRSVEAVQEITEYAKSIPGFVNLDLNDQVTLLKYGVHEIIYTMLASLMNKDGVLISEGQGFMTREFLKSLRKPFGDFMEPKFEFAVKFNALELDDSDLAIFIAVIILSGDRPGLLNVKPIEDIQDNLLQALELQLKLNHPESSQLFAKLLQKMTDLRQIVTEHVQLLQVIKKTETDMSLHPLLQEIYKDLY
Peroxisome proliferator-activated receptor gamma/Nuclear receptor coactivator 2, sequence (Q15596 whole entry, further chain): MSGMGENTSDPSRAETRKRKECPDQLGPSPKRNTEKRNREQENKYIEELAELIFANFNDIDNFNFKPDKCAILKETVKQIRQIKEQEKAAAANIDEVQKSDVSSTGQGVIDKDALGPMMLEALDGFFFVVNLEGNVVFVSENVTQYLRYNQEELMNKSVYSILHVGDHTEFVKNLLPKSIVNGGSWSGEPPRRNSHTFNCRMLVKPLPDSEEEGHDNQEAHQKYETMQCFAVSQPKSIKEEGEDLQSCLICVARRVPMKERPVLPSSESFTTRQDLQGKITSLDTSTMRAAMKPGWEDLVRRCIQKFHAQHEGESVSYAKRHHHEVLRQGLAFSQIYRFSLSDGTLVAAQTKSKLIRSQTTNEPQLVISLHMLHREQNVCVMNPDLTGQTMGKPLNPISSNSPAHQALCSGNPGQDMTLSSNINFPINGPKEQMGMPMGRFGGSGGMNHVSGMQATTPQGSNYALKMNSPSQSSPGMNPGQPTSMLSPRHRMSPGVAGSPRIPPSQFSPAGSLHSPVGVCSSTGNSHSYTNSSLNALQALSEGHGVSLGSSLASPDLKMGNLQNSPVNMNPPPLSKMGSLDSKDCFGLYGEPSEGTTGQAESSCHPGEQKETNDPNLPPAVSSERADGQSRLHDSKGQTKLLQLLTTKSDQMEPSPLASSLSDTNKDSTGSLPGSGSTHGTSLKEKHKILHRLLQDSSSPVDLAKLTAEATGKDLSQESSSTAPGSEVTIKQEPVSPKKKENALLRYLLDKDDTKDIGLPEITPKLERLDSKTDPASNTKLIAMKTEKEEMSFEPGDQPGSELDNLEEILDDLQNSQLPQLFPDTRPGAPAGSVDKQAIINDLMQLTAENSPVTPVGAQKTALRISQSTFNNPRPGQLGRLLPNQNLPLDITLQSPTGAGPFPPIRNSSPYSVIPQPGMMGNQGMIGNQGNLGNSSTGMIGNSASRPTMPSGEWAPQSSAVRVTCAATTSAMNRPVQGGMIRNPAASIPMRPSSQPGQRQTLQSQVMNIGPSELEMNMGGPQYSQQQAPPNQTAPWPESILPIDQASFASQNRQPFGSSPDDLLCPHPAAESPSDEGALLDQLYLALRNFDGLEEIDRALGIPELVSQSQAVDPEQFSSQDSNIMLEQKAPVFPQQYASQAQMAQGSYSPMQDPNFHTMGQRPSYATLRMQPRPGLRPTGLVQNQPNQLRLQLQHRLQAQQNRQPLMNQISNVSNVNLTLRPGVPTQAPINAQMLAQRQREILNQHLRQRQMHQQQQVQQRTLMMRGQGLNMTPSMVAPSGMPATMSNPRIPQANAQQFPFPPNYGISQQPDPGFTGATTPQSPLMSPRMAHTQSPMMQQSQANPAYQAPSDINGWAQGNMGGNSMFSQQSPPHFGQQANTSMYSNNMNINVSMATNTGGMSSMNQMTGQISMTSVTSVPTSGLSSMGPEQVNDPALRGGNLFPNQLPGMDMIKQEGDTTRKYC
Peroxisome proliferator-activated receptor gamma/Nuclear receptor coactivator 1, sequence (P37231 whole entry): as the sequence (P37231 whole entry) above
Peroxisome proliferator-activated receptor gamma/Nuclear receptor coactivator 1, sequence (Q15788 whole entry, further chain): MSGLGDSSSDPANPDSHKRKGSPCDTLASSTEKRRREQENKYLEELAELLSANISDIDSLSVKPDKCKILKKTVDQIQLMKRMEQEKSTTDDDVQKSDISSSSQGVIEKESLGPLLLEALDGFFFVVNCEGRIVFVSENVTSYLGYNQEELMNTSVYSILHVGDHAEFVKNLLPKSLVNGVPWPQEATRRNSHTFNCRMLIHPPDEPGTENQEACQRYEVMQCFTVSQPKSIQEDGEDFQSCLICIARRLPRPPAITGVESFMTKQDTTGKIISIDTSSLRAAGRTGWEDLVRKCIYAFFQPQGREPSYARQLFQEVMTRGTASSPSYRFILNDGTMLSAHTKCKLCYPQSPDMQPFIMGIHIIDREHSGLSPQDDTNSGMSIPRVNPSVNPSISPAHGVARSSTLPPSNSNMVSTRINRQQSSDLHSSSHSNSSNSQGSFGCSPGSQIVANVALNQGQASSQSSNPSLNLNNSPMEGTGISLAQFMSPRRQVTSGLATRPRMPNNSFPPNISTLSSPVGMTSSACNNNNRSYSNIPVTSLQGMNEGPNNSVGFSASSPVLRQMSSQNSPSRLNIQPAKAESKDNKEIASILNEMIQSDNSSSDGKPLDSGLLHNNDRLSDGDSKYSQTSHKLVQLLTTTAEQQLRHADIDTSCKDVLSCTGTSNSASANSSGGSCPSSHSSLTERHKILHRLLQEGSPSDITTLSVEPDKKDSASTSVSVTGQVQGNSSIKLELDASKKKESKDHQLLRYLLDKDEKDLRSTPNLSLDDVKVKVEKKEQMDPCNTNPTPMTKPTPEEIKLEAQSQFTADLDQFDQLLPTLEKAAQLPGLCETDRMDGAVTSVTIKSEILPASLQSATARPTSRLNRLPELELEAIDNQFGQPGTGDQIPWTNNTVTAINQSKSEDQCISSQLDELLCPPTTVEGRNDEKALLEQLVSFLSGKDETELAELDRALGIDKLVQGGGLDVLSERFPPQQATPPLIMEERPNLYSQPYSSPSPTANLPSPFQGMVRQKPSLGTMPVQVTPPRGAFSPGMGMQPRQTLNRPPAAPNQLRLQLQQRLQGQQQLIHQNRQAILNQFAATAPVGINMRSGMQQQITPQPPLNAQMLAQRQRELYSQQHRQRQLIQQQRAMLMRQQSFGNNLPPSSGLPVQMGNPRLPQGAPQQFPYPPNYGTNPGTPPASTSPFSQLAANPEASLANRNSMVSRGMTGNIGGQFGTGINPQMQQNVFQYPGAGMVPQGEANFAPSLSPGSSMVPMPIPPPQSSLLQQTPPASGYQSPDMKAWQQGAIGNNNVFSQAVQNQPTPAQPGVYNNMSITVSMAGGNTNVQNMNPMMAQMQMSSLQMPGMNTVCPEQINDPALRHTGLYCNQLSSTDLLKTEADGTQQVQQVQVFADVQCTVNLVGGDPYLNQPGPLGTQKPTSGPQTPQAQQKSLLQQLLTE
T3 sequence (P41143 whole entry): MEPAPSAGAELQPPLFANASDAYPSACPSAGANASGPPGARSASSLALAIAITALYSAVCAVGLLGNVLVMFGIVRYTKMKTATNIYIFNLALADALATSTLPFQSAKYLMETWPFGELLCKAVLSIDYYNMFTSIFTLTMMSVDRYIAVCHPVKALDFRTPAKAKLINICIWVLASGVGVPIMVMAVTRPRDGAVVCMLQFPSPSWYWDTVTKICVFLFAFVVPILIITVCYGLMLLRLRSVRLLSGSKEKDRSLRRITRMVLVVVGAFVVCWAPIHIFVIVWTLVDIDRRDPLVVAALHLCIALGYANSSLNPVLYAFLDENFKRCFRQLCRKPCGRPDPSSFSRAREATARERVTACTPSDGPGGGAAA
T2 sequence (P41145 whole entry): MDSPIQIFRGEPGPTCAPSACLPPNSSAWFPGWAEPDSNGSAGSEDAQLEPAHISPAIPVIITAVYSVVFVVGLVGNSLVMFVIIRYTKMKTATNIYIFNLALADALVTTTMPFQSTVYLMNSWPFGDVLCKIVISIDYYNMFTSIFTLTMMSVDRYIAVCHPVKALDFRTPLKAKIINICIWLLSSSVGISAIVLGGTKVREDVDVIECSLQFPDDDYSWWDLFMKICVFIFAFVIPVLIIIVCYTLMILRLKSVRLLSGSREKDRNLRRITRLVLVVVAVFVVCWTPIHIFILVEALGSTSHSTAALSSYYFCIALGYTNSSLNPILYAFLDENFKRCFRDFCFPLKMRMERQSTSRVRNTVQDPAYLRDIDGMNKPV
Mu-type opioid receptor, sequence (P35372 whole entry): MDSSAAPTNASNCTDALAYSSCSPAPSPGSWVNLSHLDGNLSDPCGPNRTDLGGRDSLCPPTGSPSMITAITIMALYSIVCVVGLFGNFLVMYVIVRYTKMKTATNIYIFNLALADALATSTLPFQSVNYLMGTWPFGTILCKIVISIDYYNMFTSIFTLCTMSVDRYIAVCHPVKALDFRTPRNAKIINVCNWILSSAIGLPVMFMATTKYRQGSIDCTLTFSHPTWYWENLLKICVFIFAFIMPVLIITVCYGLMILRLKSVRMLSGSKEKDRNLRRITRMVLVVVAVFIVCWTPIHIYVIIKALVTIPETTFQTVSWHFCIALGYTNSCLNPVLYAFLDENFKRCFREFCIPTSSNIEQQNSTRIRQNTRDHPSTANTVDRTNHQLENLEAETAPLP

Cc1cc(-c2ccc(Br)s2)nc(-n2cccc2)n1
EC50 [1]: > 79.4 µM (not active) | EC50 [2]: > 79.4 µM (inactive) | EC50 [3]: 19.3 µM (not active)

CCn1c(=S)[nH]c2scc(-c3cccs3)c2c1=O
EC50 [1]: > 79.4 µM (not active) | EC50 [4]: > 160 µM (inactive) | EC50 [5]: 1.23 µM (active) | EC50 [2]: 8.82 µM (active) | EC50 [3]: 11.1 µM (not active)

CCC(c1nnnn1CCOC)N(Cc1ccc(C)cc1)Cc1cc2cc(OC)ccc2[nH]c1=O (stereo unspecified)
EC50 [6]: > 100 µM (inactive)

CCOc1cc2[nH]c(=S)n(CCN3CCCCC3CC)c(=O)c2cc1OCC (stereo unspecified)
EC50 [6]: > 100 µM (inactive)

CCCc1nc2oc3c(Cl)ncnc3c2c2c1CCCC2
IC50 [7]: > 32 µM | EC50 [8]: > 32 µM (inactive) | EC50 (Mu-type opioid receptor): > 32 µM (inactive) | IC50 [9]: > 32 µM (inactive) | IC50 [10]: 4.64 µM (active) | EC50 (Streptococcus): > 150 µM (not active) | EC50 [11]: > 150 µM (not active) | EC50 (Streptokinase A): > 150 µM (not active) | EC50 (Beta-galactosidase): > 31.5 µM (inactive)

Cc1ccc(C)n1-c1ccc(-c2nnc3n2CCCCC3)s1
EC50 [1]: > 79.4 µM (not active) | IC50 [12]: 86.7 µM (active) | EC50 [2]: > 79.4 µM (inactive) | EC50 [3]: 38.7 µM (not active)

O=c1c2ccc(F)cc2sn1-c1ccc(Cl)c(Cl)c1
IC50 [13]: > 100 µM (inactive) | IC50 [14]: > 50 µM (inactive) | IC50 (Phosphomannomutase 2): > 100 µM (inactive)

CCOc1ccc(NS(=O)(=O)c2cc(C(=O)NCCCN3CCOCC3)ccc2C)cc1
IC50 [15]: 10.5 µM (active) | IC50 (Bcl-2-related protein A1): > 20 µM (inactive) | IC50 [16]: 9.23 µM (active)

O=C(CC1C(=O)NCCN1Cc1cccc(Oc2ccccc2)c1)NCCc1ccccn1 (stereo unspecified)
EC50 [17]: 4.73 µM (active)

Cn1cc[n+](C)c1P(=S)(c1ccccc1)c1ccccc1
EC50 [17]: 0.237 µM (active)
